Reference: patent publication US4847303A, “Tert-butylphenyl compounds useful as anti-inflammatory agents” (The Procter & Gamble Company, priority 1987, dated 1989)

tested on: Carrageenan Rat Paw Edema; test: Carrageenan Rat Paw Edema Test; assay type: in vivo, rat (male Sprague-Dawley); conditions: 100 mg/kg P.O.; carrageenan 1 h after dosing, paw volume 4 h after carrageenan; all values statistically significant from control at P ≤ 0.05
Description: Carrageenan Rat Paw Edema Test
Male Sprague-Dawley rats (Charles River Laboratories) are weighed and food fasted overnight. The animals are then divided into four to six groups of six animals each according to body weights (average about 145 g) so that each group has about the same average body weight (within 10 g).
The following morning animals are dosed with the test compound and then placed in individual cages. For oral dosing, the drug is suspended in 0.5% methyl cellulose with 2% Tween 80, and delivered via stomach tube in a 5 ml volume.
Paw volumes (0 time) are determined on both hind paws with a mercury displacement device equipped with a transducer and digitizer. One hour after dosing the test compound, the animals are placed in a plastic restrainer and 50 ul of a 1% (w/w) carrageenan solution in 0.9% saline is injected into the ventral surface of the left rear paw. Four hours after the carrageenan injection, the paw volumes are again determined.
The results are expressed as percent inhibition of the mean paw volume of the test group relative to the control group. Statistical differences are determined by one way analysis of variance.

SMILES | Percent Inhibition at 100 mg/kg dosed P.O (mean paw volume of the test group relative to the control group) [%]
C#CCCCC(=O)c1cc(C(C)C=C)c(O)c(C(C)(C)C)c1 (stereo not drawn) [Example 5, 2-s-(3-butenyl)-4-(5'-hexynoyl)-6-t-butylphenol] | 90.8
C#CCCCC(=O)c1cc(C)c(O)c(C(C)(C)C)c1 [Example 1, 2-methyl-4-(5'-hexynoyl)-6-t-butylphenol] | 75.4
C#CCCCC(=O)c1cc(CC=C)c(O)c(C(C)(C)C)c1 [Example 3, 1-Allyl-4-(5'-hexynoyl)-6-t-butylphenol] | 65.8
C#CCCCC(=O)c1cc(C(C)CC)c(O)c(C(C)(C)C)c1 (stereo not drawn) [Example 6, 2-s-butyl-4-(5'-hexynoyl)-6-t-butylphenol] | 51.5
C#CCCCC(=O)c1cc(CCC)c(O)c(C(C)(C)C)c1 [Example 4, 2-n-propyl-4-(5'-hexynoyl)-6-t-butylphenol] | 53.2
C#CCCCC(=O)c1cc(C(C)(C)C)c(O)c(C(C)(C)CO)c1 [Example 2, 2-(2-hydroxy-1,1-dimethyl-ethyl)-4-(5'-hexynoyl)-6-t-butylphenol] | 48.4
